Results: PubChem BioAssay AID192 (DTP/NCI, 2004)
Values joined by “and” are separate entries in the source; they are usually repeats but may differ in a detail not shown here. Equal values may be shown once. Inconclusive results and toxic doses are left out.

Tested on: BDF1 mice, B16 melanoma ip, median survival T/C
Assay: NCI In Vivo Anticancer Drug Screen. Data for tumor model B16 Melanoma (intraperitoneal) in B6D2F1 (BDF1) mice
Settings: endpoint: median survival time, higher = longer survival
Outline: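 In this screen, activity was judged from survival or tumor size in treated versus vehicle-treated tumor-bearing mice, reported as T/C.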

[1] = dose: 12.5 mg/kg/injection, schedule: Q01DX009 (ip), vehicle: Klucel (hydroxypropylcellulose) (HPC)
[2] = dose: 25.0 mg/kg/injection, schedule: Q01DX009 (ip), vehicle: Klucel (hydroxypropylcellulose) (HPC)
[3] = dose: 50.0 mg/kg/injection, schedule: Q01DX009 (ip), vehicle: Klucel (hydroxypropylcellulose) (HPC)
[4] = dose: 6.25 mg/kg/injection, schedule: Q01DX009 (ip), vehicle: saline with Tween-80
[5] = dose: 6.25 mg/kg/injection, schedule: Q04DX003 (ip), vehicle: saline with Tween-80
[6] = dose: 12.5 mg/kg/injection, schedule: Q01DX009 (ip), vehicle: saline with Tween-80
[7] = dose: 12.5 mg/kg/injection, schedule: Q04DX003 (ip), vehicle: saline with Tween-80
[8] = dose: 25.0 mg/kg/injection, schedule: Q01DX009 (ip), vehicle: saline with Tween-80
[9] = dose: 1.0 mg/kg/injection, schedule: Q01DX009 (ip), vehicle: saline
[10] = dose: 2.0 mg/kg/injection, schedule: Q01DX009 (ip), vehicle: saline
[11] = dose: 100.0 mg/kg/injection, schedule: Q01DX009 (ip), vehicle: Klucel (hydroxypropylcellulose) (HPC)
[12] = dose: 0.25 mg/kg/injection, schedule: Q01DX009 (ip), vehicle: saline
[13] = dose: 0.5 mg/kg/injection, schedule: Q01DX009 (ip), vehicle: saline

CCc1c2cc(OC)c(OC)cc2cc2c3cc(OC)c(OC)cc3cc[n+]12 (tested in a mixture with another compound) was tested, and the T/C (dose: 4.8 mg/kg/injection, schedule: Q01DX009 (ip), vehicle: saline) was 98 % of control, the T/C (dose: 9.5 mg/kg/injection, schedule: Q01DX009 (ip), vehicle: saline) was 98 % of control and the T/C (dose: 19.0 mg/kg/injection, schedule: Q01DX009 (ip), vehicle: saline) was 99 % of control. The T/C (dose: 37.5 mg/kg/injection, schedule: Q01DX009 (ip), vehicle: saline with Tween-80) was 117 % of control, the T/C (dose: 38.0 mg/kg/injection, schedule: Q01DX009 (ip), vehicle: saline) was 95 % of control and the T/C (dose: 75.0 mg/kg/injection, schedule: Q01DX009 (ip), vehicle: saline with Tween-80) was 108 % of control. The T/C (dose: 150.0 mg/kg/injection, schedule: Q01DX009 (ip), vehicle: saline with Tween-80) was 98 % of control.
OC(CCN1CCCCC1)(c1ccccc1)C1CCCC1 (stereo not given) was tested, and the T/C [1] was 100 % of control, the T/C [2] was 94 % of control and the T/C [3] was 100 % of control.
With NC(=S)N/N=C/c1cccc(CC(O)(C(F)(F)F)C(F)(F)F)n1 the T/C [4] was 95 % of control, the T/C [5] was 116 % of control and the T/C [6] was 90 % of control. For the same molecule, the T/C [7] was 116 % of control, the T/C [8] was 88 % of control and the T/C (dose: 25.0 mg/kg/injection, schedule: Q04DX003 (ip), vehicle: saline with Tween-80) was 100 % of control.
CCC(CCCN(CC)CCc1ccccc1)OC(=O)c1cc(OC)c(OC)c(OC)c1 (stereo not given) was tested, and the T/C (dose: 4.68 mg/kg/injection, schedule: Q01DX009 (ip), vehicle: saline) was 104 % of control, the T/C (dose: 9.37 mg/kg/injection, schedule: Q01DX009 (ip), vehicle: saline) was 108 % of control and the T/C (dose: 18.75 mg/kg/injection, schedule: Q01DX009 (ip), vehicle: saline) was 103 % of control. The T/C (dose: 37.5 mg/kg/injection, schedule: Q01DX009 (ip), vehicle: saline) was 100 % of control and the T/C (dose: 75.0 mg/kg/injection, schedule: Q01DX009 (ip), vehicle: saline) was 91 % of control.
N/C(=N\O)c1cn(C2OC(CO)C(O)C2O)c2ncnc(N)c12 (stereo not given) was tested, and the T/C [9] was 115 % of control, the T/C [10] was 117 % of control and the T/C (dose: 4.0 mg/kg/injection, schedule: Q01DX009 (ip), vehicle: saline) was 121 % of control.
For COc1ccc([C@@H]2c3cc4c(cc3C[C@H]3COC(=O)[C@@H]32)OCO4)cc1OC, the T/C (dose: 11.0 mg/kg/injection, schedule: Q01DX009 (ip), vehicle: saline with Tween-80) was 124 % of control, the T/C (dose: 22.0 mg/kg/injection, schedule: Q01DX009 (ip), vehicle: saline with Tween-80) was 111 % of control and the T/C (dose: 33.0 mg/kg/injection, schedule: Q01DX009 (ip), vehicle: saline with Tween-80) was 124 % of control. The T/C (dose: 67.0 mg/kg/injection, schedule: Q01DX009 (ip), vehicle: saline with Tween-80) was 113 % of control.
With CC(=O)OCC(COC(C)=O)(COC(C)=O)COC(C)=O the T/C (dose: 100.0 mg/kg/injection, schedule: Q01DX009 (ip), vehicle: saline with Tween-80) was 105 % of control, the T/C (dose: 200.0 mg/kg/injection, schedule: Q01DX009 (ip), vehicle: saline with Tween-80) was 105 % of control and the T/C (dose: 400.0 mg/kg/injection, schedule: Q01DX009 (ip), vehicle: saline with Tween-80) was 100 % of control.
Cc1cc(C)c(NC(=O)Nc2ccccc2)c(C)c1 was tested, and the T/C [2] was 94 % of control, the T/C [3] was 94 % of control and the T/C [11] was 108 % of control.
In the case of CCOC(=O)/N=[N+](\[O-])c1ccccc1, the T/C (dose: 3.12 mg/kg/injection, schedule: Q01DX009 (ip), vehicle: saline with Tween-80) is reported as 97 % of control, the T/C [4] is reported as 100 % of control and the T/C [6] is reported as 105 % of control. The T/C [8] was 104 % of control.
c1ccc2c(c1)ccc1c[n+]3ccccc3cc12 was tested, and the T/C [12] was 114 % of control, the T/C [13] was 100 % of control and the T/C [9] was 97 % of control.
With FC1(F)SC2C3CC(C4CCC=C43)C2C1(F)F (stereo not given) the T/C (dose: 0.39 mg/kg/injection, schedule: Q01DX009 (ip), vehicle: Klucel (hydroxypropylcellulose) (HPC)) was 89 % of control and the T/C (dose: 0.78 mg/kg/injection, schedule: Q01DX009 (ip), vehicle: Klucel (hydroxypropylcellulose) (HPC)) was 103 % of control.
For CNC(=O)Oc1coc(CCl)cc1=O, the T/C (dose: 12.0 mg/kg/injection, schedule: Q01DX009 (ip), vehicle: Klucel (hydroxypropylcellulose) (HPC)) was 93 % of control, the T/C (dose: 18.0 mg/kg/injection, schedule: Q01DX009 (ip), vehicle: Klucel (hydroxypropylcellulose) (HPC)) was 96 % of control and the T/C (dose: 27.0 mg/kg/injection, schedule: Q01DX009 (ip), vehicle: Klucel (hydroxypropylcellulose) (HPC)) was 96 % of control. For the same molecule, the T/C (dose: 40.0 mg/kg/injection, schedule: Q01DX009 (ip), vehicle: Klucel (hydroxypropylcellulose) (HPC)) was 106 % of control.
c1ccc([B-]2([C+]3CCCCC3)N3CCCCC3C3CCCCN32)cc1 (stereo not given) was tested, and the T/C [1] was 106 % of control and the T/C [2] was 93 % of control.
In the case of C/C=C/C1=CC(=O)C(O)C1O (stereo not given), the T/C (dose: 25.0 mg/kg/injection, schedule: Q01DX009 (ip), vehicle: water) is reported as 92 % of control, the T/C (dose: 50.0 mg/kg/injection, schedule: Q01DX009 (ip), vehicle: water) is reported as 117 % of control and the T/C (dose: 100.0 mg/kg/injection, schedule: Q01DX009 (ip), vehicle: water) is reported as 122 % of control. For the same molecule, the T/C (dose: 200.0 mg/kg/injection, schedule: Q01DX009 (ip), vehicle: water) was 122 % of control.
With CC1CN1c1nc(N2CC2C)nc(N2CC2C)n1 (stereo not given) the T/C [12] was 105 % of control, the T/C [13] was 97 % of control and the T/C (dose: 1.0 mg/kg/injection, schedule: Q01DX009 (ip), vehicle: saline with Tween-80) was 111 % of control. The T/C [9] was 98 % of control, the T/C (dose: 2.0 mg/kg/injection, schedule: Q01DX009 (ip), vehicle: saline with Tween-80) was 116 % of control and the T/C [10] was 94 % of control. The T/C (dose: 2.0 mg/kg/injection, schedule: Q04DX003 (ip), vehicle: saline) was 105 % of control, the T/C (dose: 4.0 mg/kg/injection, schedule: Q01DX009 (ip), vehicle: saline with Tween-80) was 105 % of control and the T/C (dose: 4.0 mg/kg/injection, schedule: Q04DX003 (ip), vehicle: saline) was 94 % of control. For the same molecule, the T/C (dose: 8.0 mg/kg/injection, schedule: Q01DX009 (ip), vehicle: saline with Tween-80) was 90 % of control and the T/C (dose: 8.0 mg/kg/injection, schedule: Q04DX003 (ip), vehicle: saline) was 105 % of control.
NCCCN=c1ccc2c3c1c(O)c1c(O)ccc(=O)c1c3[nH]n2CCNCCO was tested, and the T/C (dose: 0.5 mg/kg/injection, schedule: Q01DX009 (ip), vehicle: water) was 158 % of control and 197 % of control, the T/C (dose: 1.0 mg/kg/injection, schedule: Q01DX009 (ip), vehicle: water) was 187 % of control and 227 % of control and the T/C (dose: 2.0 mg/kg/injection, schedule: Q01DX009 (ip), vehicle: water) was 216 % of control and 242 % of control. The T/C (dose: 4.0 mg/kg/injection, schedule: Q01DX009 (ip), vehicle: water) was 216 % of control and 244 % of control, the T/C (dose: 8.0 mg/kg/injection, schedule: Q01DX009 (ip), vehicle: water) was 216 % of control and 338 % of control and the T/C (dose: 16.0 mg/kg/injection, schedule: Q01DX009 (ip), vehicle: water) was 158 % of control.
Nc1nc(=O)n(C2OC(CO)C(O)C2O)cc1F (stereo not given) was tested, and the T/C (dose: 6.25 mg/kg/injection, schedule: Q01DX009 (ip), vehicle: saline) was 116 % of control, the T/C (dose: 9.0 mg/kg/injection, schedule: Q01DX009 (ip), vehicle: saline) was 109 % of control and the T/C (dose: 12.5 mg/kg/injection, schedule: Q01DX009 (ip), vehicle: saline) was 96 % of control. For the same molecule, the T/C (dose: 18.0 mg/kg/injection, schedule: Q01DX009 (ip), vehicle: saline) was 116 % of control, the T/C (dose: 24.0 mg/kg/injection, schedule: Q01DX009 (ip), vehicle: saline) was 118 % of control and the T/C (dose: 54.0 mg/kg/injection, schedule: Q01DX009 (ip), vehicle: saline) was 103 % of control.
With N#CC(C#N)=CN1CCCCCC1 the T/C (dose: 3.13 mg/kg/injection, schedule: Q01DX009 (ip), vehicle: saline with Tween-80) was 107 % of control, the T/C (dose: 3.13 mg/kg/injection, schedule: Q04DX003 (ip), vehicle: saline with Tween-80) was 93 % of control and the T/C [4] was 102 % of control. For the same molecule, the T/C [5] was 97 % of control, the T/C [6] was 102 % of control and the T/C [7] was 100 % of control.
Cc1cccc(C)c1NC(=O)c1cccc(C(=O)Nc2c(C)cccc2C)c1 was tested, and the T/C [11] was 100 % of control, the T/C (dose: 200.0 mg/kg/injection, schedule: Q01DX009 (ip), vehicle: Klucel (hydroxypropylcellulose) (HPC)) was 94 % of control and the T/C (dose: 400.0 mg/kg/injection, schedule: Q01DX009 (ip), vehicle: Klucel (hydroxypropylcellulose) (HPC)) was 91 % of control.
